The source of these data is patent US20080187568A1, “Polymerization with precipitation of proteins for elution in physiological solution” (priority 2007, published 2008).

Read-outs that look alike come from different tables or passages of the source.

The nature of data set [1]: Solubility / precipitation of the agent in hydrogel precursor solutions.
Procedure: (§1) 0.68 grams 4 arm-n-hydroxysuccinimide ester of polyethylene glycol and carboxymethylene-butyric acid, average molecular weight 10000 Daltons (Shearwater 4 arm CM-HBA-NS-10K) is dissolved in 2.82 g 0.01M phosphate buffer at pH 4.0 and is sterile filtered. Solution B is prepared by dissolving 0.025 grams trilysine and 10 mg bovine fibrinogen (purchased from Sigma Chemicals) in 3.47 g 0.1M borate buffer at pH 9.5 with 0.1 mg/mL methylene blue for visualization. 1 ml of solution A and B are mixed to promote condensation polymerization. Trilysine and PEG-NHS ester react to form a crosslinked hydrogel.
(§2) 1.41 grams 4 arm-n-hydroxysuccinimide ester of polyethylene glycol carboxymethylene-butyric acid, average molecular weight 10000 Daltons (Shearwater 4 arm CM-HBA-NS-10K) and 100 mg of Bone Morphogenetic Protein 2 (BMP-2 protein, recombinant, Sigma catalog B3555) are mixed in a solid state as lyophilized powders and are dissolved/suspended in 2.96 ml 0.1 M HCl just prior to use. Solution B is prepared by dissolving 0.06 grams dilysine (purchased from Sigma Chemicals) in 7.2 g 0.1M borate buffer at pH 9.5 with 0.1 mg/mL methylene blue for visualization. 1 ml of solution A and B are mixed to promote condensation polymerization between dilysine and PEG-NHS ester. Dilysine and PEG-NHS ester react to form a crosslinked hydrogel. HCl is neutralized by borate buffer to form a neutral/basic solution medium.
(§3) 1.37 grams 4 arm-n-hydroxysuccinimide ester of polyethylene glycol carboxymethylene-butyric acid, average molecular weight 10000 Daltons (Shearwater 4 arm CM-HBA-NS-10K) is dissolved in 5.64 g 0.01M phosphate buffer at pH 4.0 and is sterile filtered. Solution B is prepared by dissolving 0.050 grams trilysine and 100 mg paclitaxel in 6.94 g 0.1M borate buffer at pH 9.5 with 0.5 mg/mL methylene blue for visualization. […] Trilysine and PEG-NHS ester react to form a crosslinked hydrogel.
For data set [2] the following is noted: cited from earlier work.
The conditions of data set [3]: pH 9.5.
Procedure: as §1, §2, §3

In the case of Fibrinogen, the “precipitation on mixing with PEG-NHS ester solution” value in data set [1] (fibrinogen in trilysine solution mixed with PEG-NHS ester solution) is reported as “precipitated”.

Regarding `CC(=O)O[C@H]1C(=O)[C@@]2(C)[C@H]([C@H](OC(=O)c3ccccc3)[C@]3(O)C[C@H](OC(=O)[C@H](O)[C@@H](NC(=O)c4ccccc4)c4ccccc4)C(C)=C1C3(C)C)[C@]1(OC(C)=O)CO[C@@H]1C[C@@H]2O` [paclitaxel], the “solubility in borate buffer” value in data set [1] (0.1M borate buffer at pH 9.5 (solution B)) is “insoluble”.

As a reminder, the solubility is how much of the substance goes into solution per volume. Turning to `CC(C)(C)NC[C@H](O)COc1nsnc1N1CCOCC1` [Timolol], in data set [2], the “solubility at pH 4” value is 1000 g/L, the “solubility at pH 7” value is 160 g/L and the “solubility at pH 10” value is given as 2.4 g/L.

In the case of `CO[C@H]1/C=C/O[C@@]2(C)Oc3c(C)c(O)c4c(O)c(c(/C=N/N5CCN(C)CC5)c(O)c4c3C2=O)NC(=O)/C(C)=C\C=C\[C@H](C)[C@H](O)[C@@H](C)[C@@H](O)[C@@H](C)[C@H](OC(C)=O)[C@@H]1C` [Rifampicin, rifampicin], in data set [2], the “solubility at pH 4” value is listed as 1.6 g/L, the “solubility at pH 7” value was 0.16 g/L and the “solubility at pH 10” value is given as 1000 g/L.

Consider `Cc1c(C)c2c(c(C)c1O)CC[C@@](C)(CCC[C@H](C)CCC[C@H](C)CCCC(C)C)O2` [vitamin E, alpha-Tocopherol], for which the “solubility in borate buffer” value in data set [3] is on record as “insoluble”.

As to `COc1c(N2C[C@@H]3CCCN[C@@H]3C2)c(F)cc2c(=O)c(C(=O)O)cn(C3CC3)c12` [Moxifloxacin], in data set [2], the “solubility at pH 4” value is on record as 11 g/L, the “solubility at pH 7” value is on record as 0.13 g/L and the “solubility at pH 10” value was 0.14 g/L.
